Test results: the NIST ThermoML archive (doi:10.1016/j.jct.2014.09.014)

Settings: Liquid, Vibrating tube method

CCCCn1cc[n+](C)c1C.O=S(=O)([N-]S(=O)(=O)C(F)(F)F)C(F)(F)F
mass density [kg/m3]
Settings	100 kPa	1000 kPa	10000 kPa	20000 kPa	40000 kPa	60000 kPa	80000 kPa	100000 kPa	120000 kPa
278.15 K	1439.8	1440	1445.9	1452.2	1464	1475	1485.2	1494.7	1503.9
298.15 K	1420.9	1421.2	1427.5	1434.1	1446.5	1458	1468.8	1479	1488.7
313.15 K	1407.1	1407.5	1414	1420.9	1433.9	1445.8	1457	1467.3	1477.2
333.15 K	1388.5	1389	1396	1403.4	1417.1	1429.7	1441.4	1452.2	1462.6
348.15 K	1374.7	1375.3	1382.7	1390.4	1404.7	1417.8	1429.9	1441.1	1451.7
373.15 K	1351.1	1352.3	1360.4	1368.7	1384	1397.9	1410.6	1422.5	1433.6
398.15 K	1328.4	1329.7	1338.4	1347.4	1363.8	1378.5	1392.1	1404.6	1416
